Test results from patent US10047067B2, “Composition for treating kidney disease comprising pyrazole derivative” (Ewha University-Industry Collaboration Foundation, priority 2012, dated 2018).
“Also recorded” adds a separate entry of the source.

Columns and labels:
Assay type in all cases: in vivo
C57BL/6J mice [1] = test: Glomerular hypertrophy and glomerular mesangial expansion (PAS staining of kidney); settings: treatment group vs diabetes group, 10 mg/kg/day oral, 12 weeks
Method: For morphological analysis for examining glomerular hypertrophy and glomerular mesangial cell formation, a staining method was used as disclosed previously (Lee E A, Seo J Y, Jiang Z, Yu M R, Kwon M K, Ha H, Lee H B: Reactive oxygen species mediate high glucose-induced plasminogen activator inhibitor-1 up-regulation in mesangial cells and in diabetic kidney. Kidney Int. 67:1762-71, 2005). As described in Example 10, diabetes was induced in mice that were then treated with 1-(pyridin-2-yl)-3-phenyl-4-propyl-1H-pyrazol-5-ol.HCl, the compound of Example 1, and scarified 12 weeks later. After cardiac perfusion with 0.1 M PBS (phosphate-buffered saline), tissue fixation was performed overnight with 2% PLP (paraformaldehyde-lysine-periodate). […] In one renal tissue, 30 glomeruli were scanned, and measured for size and mesangial cell formation, using Image-Pro Plus 4.5 Software (MEDIA CYBERNETICS). The glomerular size was calculated according to Equation 1. […] Data of FIG. 1 are expressed as mean±standard error (SE) from 8 to 12 mice per group. Statistic comparison among the groups was analyzed by ANOVA and Fisher's least significant difference test, with significance at p<0.05. *P<0.05 vs. WT, †P<0.05 vs DM.

C57BL/6J mice [2] = test: Renal fibrosis: real-time PCR analysis of renal tissues; settings: renal tissue, treatment group vs diabetes group, 12 weeks
Method: Total RNA was isolated using Trizol reagent (Invitrogen) according to the manufacturer's instruction. The total RNA isolate was used for real-time PCR.
Briefly, as described in Example 10, diabetes was induced, and 1-(pyridin-2-yl)-3-phenyl-4-propyl-1H-pyrazol-5-ol.HCl, the compound of Example 1 of the present invention, was administered to the mice that were sacrificed 12 weeks later. Then, renal tissues were excised from the mice and homogenized with a predetermined amount (500 μl) of Trizol reagent (Invitrogen), followed by centrifuging the homogenate (13,000 rpm, 10 min). The supernatant was reacted with 200 μl of chloroform for 15 min and centrifuged. The total RNA was precipitated with isopropyl alcohol, and washed with 75% ethyl alcohol before use in experiments. From 2 μg of total RNA, cDNA was synthesized using a reverse transcription kit (Applied Biosystems), and selective mRNA was quantitatively analyzed in ABI 7300 real-time PCR thermal cycler (Applied Biosystems) with the aid of SYBR Green PCR Master Mix kit according to the manufacturer's instruction. Each experiment was run in duplicate with 20 μl. For correct quantitation and identification of results from a single product, a standard curve and a dissociation curve were employed. PCR was performed with 40 thermal cycles of 95° C. for 15 sec and 56° C. for 1 min.
In FIG. 3, the control (WT) stands for a group in which type 1 diabetes mellitus was not induced, the diabetes group (DM) for a group in which type 1 diabetes mellitus was induced, and the treatment group (DM+compound of Example 1) for a group that was treated with the compound of Example 1 after introduction of type 1 diabetes mellitus. Data of FIG. 3 are expressed as mean±standard error (SE) from 8 to 12 mice per group. Statistic comparison among the groups was analyzed by ANOVA and Fisher's least significant difference test, with significance at p<0.05. *P<0.05 vs. WT, †P<0.05 vs. DM.

C57BL/6J mice [3] = test: Collagen accumulation (Masson's trichrome, picrosirius red) and macrophage marker F4/80 immunohistochemical staining of renal tissue; settings: treatment group vs diabetes group, 10 mg/kg/day oral, 12 weeks; listed as Example 1, 10 mg/kg/day
Method: Immunohistochemical staining was performed as previously disclosed (Noh H, Kim J S, Han K-H, Lee G T, Song J S, Chung S H, Jeon J S, Ha H, Lee H B: Oxidative stress during peritoneal dialysis: implications in functional and structural changes in the membrane. Kidney Int. 69: 2022-2028, 2006).
Briefly, as described in Example 11, diabetes was induced in mice that were then treated with 1-(pyridin-2-yl)-3-phenyl-4-propyl-1H-pyrazol-5-ol.HCl, the compound of Example 1, and scarified 12 weeks later. After cardiac perfusion with 0.1 M PBS (phosphate-buffered saline), tissue fixation was performed overnight with 2% PLP (paraformaldehyde-lysine-periodate). Paraffin embedding was conducted by sequential treatment with: 70% ethanol for 1 hr; 80% ethanol for 1 hr; 90% ethanol for 1 hr; 95% ethanol for 1 hr, twice; 100% ethanol for 1 hr, three times; xylene for 30 min, twice; paraffin for 30 min; and paraffin for 1.5 hrs. The paraffin tissue was sliced into a section 4 μm thick, followed by deparaffinization with alcohol. In order to enhance antibody penetration thereinto, the renal tissue was immersed in 10 mM citrate buffer (pH 6.0), heated with microwaves (at 700 watts for 5 min and then at 100 watts for 5 min), and then finally incubated at room temperature for 30 min Intrinsic peroxidase was removed by treatment with peroxidase blocking reagent (Peroxidase Blocking Reagent Ready-To-Use, Dakocytomation) for 30 min. Subsequently, the renal tissue was incubated with a protein block serum-free solution (Protein Blocking Serum-Free Ready-To-Use, Dakocytomation) for 15 min and then overnight with a primary antibody (F4/80, Santa Cruz) at 4° C., followed by amplification with ABC kit (Santa Cruz) using the ABC (avidin-biotin-enzyme complex) method. […]
To examine tissue injury, staining was performed with Masson's trichrome (Sigma-Aldrich) and picrosirius red (Sigma-Aldrich) according to the manufacturer's instructions. The degree of tissue injury was expressed as tubulointerstitial collagen accumulation per area. […]

Compound: CCCc1c(-c2ccccc2)nn(-c2ccccn2)c1O.Cl [Compound 18-278, 1-(pyridin-2-yl)-3-phenyl-4-propyl-1H-pyrazol-5-ol.HCl]
- glomerular mesangial expansion (fractional mesangial area) (C57BL/6J mice [1]): reduced to the level of the control
- glomerular size (glomerular volume) (C57BL/6J mice [1]): significantly smaller than that of the diabetes group
- expression level of Collagen Iα1 mRNA to 18S rRNA (C57BL/6J mice [2]): significantly decreased
- expression level of F4/80 mRNA to 18S rRNA (C57BL/6J mice [2]): significantly decreased
- expression level of TGF-β1 mRNA to 18S rRNA (C57BL/6J mice [2]): significantly decreased
- expression level of collagen IV mRNA to 18S rRNA (C57BL/6J mice [2]): significantly decreased
- expression level of fibronectin mRNA to 18S rRNA (C57BL/6J mice [2]): significantly decreased
- collagen accumulation, Masson's trichrome staining (blue area) (C57BL/6J mice [3]): in a smaller area than was the diabetes group; also recorded: significantly reduced
- collagen accumulation, picrosirius red staining (red area) (C57BL/6J mice [3]): a smaller area; also recorded: significantly reduced
- macrophage production, immunohistochemical staining (F4/80) (C57BL/6J mice [3]): in a smaller area than was the diabetes group; also recorded: significantly reduced
